A word on the IC50: it is the concentration that gives 50% inhibition. The EC50 is the concentration needed to bring the measured effect to its halfway point. A word on the AC50: it is the concentration at which the activity in the assay is half-maximal.

Active and inactive are the calls of the source. A value given as a limit tells only on which side of the number the result lay.

Test [1] deals with Glucose-6-phosphate 1-dehydrogenase (Homo sapiens, UniProt P11413). Description: human G6PD enzyme inhibitors, dose response, selectivity assay for P. falciparum G6PD inhibitor project, biochemical, fluorescence (AID 504792). The test is classed as functional.
Sequence of Glucose-6-phosphate 1-dehydrogenase (P11413 whole entry): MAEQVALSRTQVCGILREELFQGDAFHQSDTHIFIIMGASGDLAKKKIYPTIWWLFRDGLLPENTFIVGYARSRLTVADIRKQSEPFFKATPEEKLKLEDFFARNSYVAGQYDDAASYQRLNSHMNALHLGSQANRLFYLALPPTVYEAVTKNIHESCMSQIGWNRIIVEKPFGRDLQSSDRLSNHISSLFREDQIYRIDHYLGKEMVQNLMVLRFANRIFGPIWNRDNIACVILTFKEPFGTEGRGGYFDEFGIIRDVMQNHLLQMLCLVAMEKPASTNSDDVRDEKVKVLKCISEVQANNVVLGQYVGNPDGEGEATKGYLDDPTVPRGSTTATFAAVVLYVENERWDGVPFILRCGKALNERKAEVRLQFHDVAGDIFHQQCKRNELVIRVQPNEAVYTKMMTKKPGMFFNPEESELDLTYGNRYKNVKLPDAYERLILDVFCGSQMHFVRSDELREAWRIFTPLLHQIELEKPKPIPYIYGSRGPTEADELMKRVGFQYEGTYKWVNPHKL
Test [2] concerns the target T1, Heat shock factor protein 1 (Mus musculus, UniProt P38532).
T1 sequence (P38532 whole entry): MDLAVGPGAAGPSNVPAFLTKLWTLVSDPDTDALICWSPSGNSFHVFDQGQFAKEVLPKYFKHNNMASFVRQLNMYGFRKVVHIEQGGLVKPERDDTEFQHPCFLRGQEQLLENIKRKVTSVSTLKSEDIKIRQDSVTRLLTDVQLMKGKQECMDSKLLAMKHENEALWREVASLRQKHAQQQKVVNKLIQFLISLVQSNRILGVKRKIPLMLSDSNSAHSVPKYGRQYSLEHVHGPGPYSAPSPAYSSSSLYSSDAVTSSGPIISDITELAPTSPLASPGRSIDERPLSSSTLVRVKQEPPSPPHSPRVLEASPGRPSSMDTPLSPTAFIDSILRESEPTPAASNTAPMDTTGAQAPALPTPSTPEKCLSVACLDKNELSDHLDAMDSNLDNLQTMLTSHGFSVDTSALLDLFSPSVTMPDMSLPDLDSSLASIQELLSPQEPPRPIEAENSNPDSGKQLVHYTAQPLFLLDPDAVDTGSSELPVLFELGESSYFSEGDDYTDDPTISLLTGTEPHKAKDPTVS
In words: inhibition of MG132-induced HSE-luciferase signal, confirmation, cell-based, NIH3T3, luminescence, dose retest (AID 2382).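 Note: NIH3T3 fibroblasts with HSF1-driven luciferase reporter stressed by proteasome inhibitor MG132; luminescence from HSF1-driven luciferase expression after 8 hours of MG132 stress.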 The test is classed as functional.

Another test relates to INS1. In words: beta cell apoptosis inhibitors, cytokine rescue, dose response, luminescence, retest (AID 449756).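 Note: cell death triggered by IL-1 beta plus TNF-alpha plus IFN-gamma mixture; protective hits raise ATP signal compared with cytokine alone wells.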 The format is functional, cell-based. The settings on record: Rattus norvegicus.
The test system of test [3] is BJ. In words: cells. The settings on record: Homo sapiens. The format is functional, cell-based.
Test [4] deals with BJ. Description: cytotoxicity toward Ras-transformed BJeLR fibroblasts, dose response, cell-based, alamar blue fluorescence, cherrypicked samples (AID 2631).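 Note: confirmatory dose-response assay in RAS-dependent BJ fibroblasts engineered with TERT, LT and ST, with cytotoxicity read by fluorescence.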 The format is functional. The settings on record: Homo sapiens. A general note: Resazurin is reduced to fluorescent resorufin, in cell work by metabolically active cells.
Test [5] can be described thus: cytotoxicity toward DRD oncogenic fibroblasts, dose response, cell-based, non-viral oncogenic, luminescence (AID 1934). The format is functional. The settings on record: Homo sapiens.
Test [6] has as its system BJ. In words: cytotoxicity toward BJ-TERT fibroblasts, dose response, cell-based, RAS-independent, luminescence (AID 1933). The test is classed as functional. The settings on record: Homo sapiens.
In test [7] the test system is BJ. In words: cytotoxicity toward BJ-TERT-LT-ST fibroblasts, dose response, cell-based, RAS-independent, luminescence (AID 1935).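 Note: BJ fibroblasts immortalized with TERT plus LT and ST oncogenes.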 The test is classed as functional. The settings on record: Homo sapiens.
Test [8] in a line: insulin promoter down-regulators in MIN6 cells, imaging, high-content screening, mouse beta cells (AID 1628). The test is classed as functional.
Test [9] in a line: cytotoxicity in MIN6 insulinoma cells, dose response, cytotoxicity control, cell-based, mouse insulinoma (AID 2122).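 Note: confirmatory high-throughput counterscreen run to flag cytotoxic compounds; mouse MIN-6 beta cells carrying an insulin promoter eGFP reporter.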 The format is functional.
Test [10] in a line: Luminescence Cell-Based Dose Response HTS to Identify Inhibitors of 5'UTR Stem-Loop Driven Prion Protein mRNA Translation in H4 Neuroglioblastoma Cells. [Related pubchem assays: 1827 (Project Summary), 1813 (Primary HTS)]. The format is functional.
Test [11] can be described thus: inhibitors of SNCA 5'UTR-driven reporter translation, confirmation, H4 neuroglioma cells, luminescence (AID 1988). The test is classed as functional, cell-based.
The nature of test [12]: inhibitors of firefly luciferase expression or activity, dose response, H4 neuroglioma cells, luminescence (AID 1990). The format is functional, cell-based.
The nature of test [13]: Counterscreen for AddAB inhibitors: absorbance-based bacterial cell-based high throughput dose response assay for inhibitors of bacterial viability. [Related pubchem assays (depositor defined):AID435030, AID449728, AID449731, AID488942, AID488955, AID488956]. The format is functional.
In another test the target is T2, Exodeoxyribonuclease V (Escherichia coli (strain K12), UniProt P04993+P07648+P08394).
T2 sequence (P04993 whole entry): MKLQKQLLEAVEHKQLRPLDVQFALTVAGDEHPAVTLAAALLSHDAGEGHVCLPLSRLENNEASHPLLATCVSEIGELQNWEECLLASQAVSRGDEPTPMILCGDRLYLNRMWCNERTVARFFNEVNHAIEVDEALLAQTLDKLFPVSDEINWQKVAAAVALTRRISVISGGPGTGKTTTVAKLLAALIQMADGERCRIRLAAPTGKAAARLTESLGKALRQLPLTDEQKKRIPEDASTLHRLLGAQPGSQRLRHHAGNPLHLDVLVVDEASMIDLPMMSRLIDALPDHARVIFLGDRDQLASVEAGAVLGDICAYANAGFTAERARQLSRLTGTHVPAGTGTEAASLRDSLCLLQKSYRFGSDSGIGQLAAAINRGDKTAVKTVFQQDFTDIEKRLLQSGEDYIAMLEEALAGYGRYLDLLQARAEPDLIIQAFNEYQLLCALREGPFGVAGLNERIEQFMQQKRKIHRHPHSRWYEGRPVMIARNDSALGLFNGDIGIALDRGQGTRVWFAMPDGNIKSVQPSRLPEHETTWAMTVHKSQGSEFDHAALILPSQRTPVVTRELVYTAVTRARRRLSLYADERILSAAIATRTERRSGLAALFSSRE
T2 sequence (P07648 whole entry): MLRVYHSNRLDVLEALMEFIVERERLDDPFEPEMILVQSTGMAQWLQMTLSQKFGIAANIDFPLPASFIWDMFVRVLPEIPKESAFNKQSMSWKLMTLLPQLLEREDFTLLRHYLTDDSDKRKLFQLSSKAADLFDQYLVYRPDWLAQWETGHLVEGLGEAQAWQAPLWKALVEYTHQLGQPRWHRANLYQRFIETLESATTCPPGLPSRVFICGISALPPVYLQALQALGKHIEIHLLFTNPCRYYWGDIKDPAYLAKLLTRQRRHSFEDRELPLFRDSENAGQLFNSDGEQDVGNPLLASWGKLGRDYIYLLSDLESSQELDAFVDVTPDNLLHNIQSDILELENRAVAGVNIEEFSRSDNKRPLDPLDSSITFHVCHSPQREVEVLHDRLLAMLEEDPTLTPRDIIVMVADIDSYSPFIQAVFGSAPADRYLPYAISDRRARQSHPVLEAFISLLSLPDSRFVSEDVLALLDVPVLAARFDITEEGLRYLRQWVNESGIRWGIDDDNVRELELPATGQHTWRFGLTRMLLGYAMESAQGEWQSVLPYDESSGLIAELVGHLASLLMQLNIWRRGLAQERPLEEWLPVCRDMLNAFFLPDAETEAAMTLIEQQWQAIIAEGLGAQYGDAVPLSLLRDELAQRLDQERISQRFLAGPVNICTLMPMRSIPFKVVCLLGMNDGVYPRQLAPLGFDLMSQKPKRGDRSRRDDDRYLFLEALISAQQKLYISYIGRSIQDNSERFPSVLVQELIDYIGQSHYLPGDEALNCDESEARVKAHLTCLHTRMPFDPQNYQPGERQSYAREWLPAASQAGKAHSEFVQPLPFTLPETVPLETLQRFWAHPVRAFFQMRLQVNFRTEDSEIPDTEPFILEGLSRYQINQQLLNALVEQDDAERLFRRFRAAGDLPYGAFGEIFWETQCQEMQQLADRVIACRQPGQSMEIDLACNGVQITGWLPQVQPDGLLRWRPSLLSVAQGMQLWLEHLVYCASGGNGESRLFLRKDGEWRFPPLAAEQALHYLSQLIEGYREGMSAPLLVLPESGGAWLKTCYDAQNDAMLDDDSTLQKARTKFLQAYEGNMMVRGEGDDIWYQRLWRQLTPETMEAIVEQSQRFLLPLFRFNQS
T2 sequence (P08394 whole entry): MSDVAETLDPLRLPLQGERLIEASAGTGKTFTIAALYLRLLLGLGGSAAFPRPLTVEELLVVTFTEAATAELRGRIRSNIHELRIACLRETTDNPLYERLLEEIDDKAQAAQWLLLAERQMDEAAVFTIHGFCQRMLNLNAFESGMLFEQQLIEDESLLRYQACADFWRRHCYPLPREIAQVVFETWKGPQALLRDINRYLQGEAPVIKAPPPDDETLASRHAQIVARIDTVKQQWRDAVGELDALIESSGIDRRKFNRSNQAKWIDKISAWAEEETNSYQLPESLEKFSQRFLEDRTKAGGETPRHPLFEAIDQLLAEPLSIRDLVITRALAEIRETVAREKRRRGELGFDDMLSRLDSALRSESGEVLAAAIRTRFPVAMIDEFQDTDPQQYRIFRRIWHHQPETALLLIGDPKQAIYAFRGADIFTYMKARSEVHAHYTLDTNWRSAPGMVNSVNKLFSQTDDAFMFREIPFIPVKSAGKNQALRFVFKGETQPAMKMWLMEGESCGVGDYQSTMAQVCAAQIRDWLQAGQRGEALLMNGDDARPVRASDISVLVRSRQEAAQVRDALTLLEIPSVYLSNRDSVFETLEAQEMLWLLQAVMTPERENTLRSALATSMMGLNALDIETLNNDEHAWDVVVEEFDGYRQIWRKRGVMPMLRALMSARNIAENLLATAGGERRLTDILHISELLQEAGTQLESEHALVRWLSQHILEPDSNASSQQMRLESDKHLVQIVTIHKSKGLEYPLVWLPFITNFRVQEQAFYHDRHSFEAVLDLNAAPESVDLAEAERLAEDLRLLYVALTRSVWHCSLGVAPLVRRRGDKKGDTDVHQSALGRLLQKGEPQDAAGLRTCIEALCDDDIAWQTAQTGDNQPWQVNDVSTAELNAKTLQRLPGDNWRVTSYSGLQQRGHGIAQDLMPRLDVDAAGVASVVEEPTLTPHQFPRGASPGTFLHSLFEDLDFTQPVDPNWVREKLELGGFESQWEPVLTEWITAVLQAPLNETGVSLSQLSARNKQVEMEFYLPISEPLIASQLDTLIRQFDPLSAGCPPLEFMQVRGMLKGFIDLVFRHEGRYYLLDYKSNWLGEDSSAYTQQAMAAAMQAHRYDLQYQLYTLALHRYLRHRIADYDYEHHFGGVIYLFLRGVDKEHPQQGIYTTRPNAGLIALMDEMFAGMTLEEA
Description: E. coli RecBCD inhibitors, dose response, counter-screen for AddAB inhibitor project, absorbance, V66 E. coli, mutant T4 phage (AID 492957). The format is functional, cell-based, Escherichia coli str. K-12 substr. MG1655. For orientation: Counterscreens check selectivity or assay interference.

Another test concerns the target Large T antigen (Simian virus 40, UniProt P03070). The format is functional, Betapolyomavirus macacae.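 Note: Confirmatory-stage PubChem screen for compounds that inhibit SV40 T antigen.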
In test [14] the target is T3, Rac GTPase-activating protein 1 (Homo sapiens, UniProt Q9H0H5).
T3 sequence (Q9H0H5 whole entry): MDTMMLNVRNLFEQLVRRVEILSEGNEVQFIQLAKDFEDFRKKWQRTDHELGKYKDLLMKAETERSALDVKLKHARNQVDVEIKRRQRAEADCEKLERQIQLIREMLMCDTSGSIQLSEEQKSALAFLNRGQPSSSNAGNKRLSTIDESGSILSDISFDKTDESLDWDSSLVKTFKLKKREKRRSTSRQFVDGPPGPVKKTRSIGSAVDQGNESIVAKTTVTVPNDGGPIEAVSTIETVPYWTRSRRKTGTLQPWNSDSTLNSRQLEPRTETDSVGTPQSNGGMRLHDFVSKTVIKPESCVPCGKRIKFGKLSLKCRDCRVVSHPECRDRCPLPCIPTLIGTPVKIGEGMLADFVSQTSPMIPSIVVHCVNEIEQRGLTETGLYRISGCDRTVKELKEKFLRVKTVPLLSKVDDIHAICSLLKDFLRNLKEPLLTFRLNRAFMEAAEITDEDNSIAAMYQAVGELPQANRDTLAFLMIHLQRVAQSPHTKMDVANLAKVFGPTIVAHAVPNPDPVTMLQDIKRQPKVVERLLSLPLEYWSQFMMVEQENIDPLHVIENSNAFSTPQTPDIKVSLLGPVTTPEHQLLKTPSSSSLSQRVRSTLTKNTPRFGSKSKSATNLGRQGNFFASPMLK
Description: MgcRacGAP GTPase-activating activity inhibitors, confirmation, biochemical, ADP Hunter fluorescence, primary and confirmatory (AID 624330). The format is functional.

Sequence of Large T antigen (P03070 whole entry): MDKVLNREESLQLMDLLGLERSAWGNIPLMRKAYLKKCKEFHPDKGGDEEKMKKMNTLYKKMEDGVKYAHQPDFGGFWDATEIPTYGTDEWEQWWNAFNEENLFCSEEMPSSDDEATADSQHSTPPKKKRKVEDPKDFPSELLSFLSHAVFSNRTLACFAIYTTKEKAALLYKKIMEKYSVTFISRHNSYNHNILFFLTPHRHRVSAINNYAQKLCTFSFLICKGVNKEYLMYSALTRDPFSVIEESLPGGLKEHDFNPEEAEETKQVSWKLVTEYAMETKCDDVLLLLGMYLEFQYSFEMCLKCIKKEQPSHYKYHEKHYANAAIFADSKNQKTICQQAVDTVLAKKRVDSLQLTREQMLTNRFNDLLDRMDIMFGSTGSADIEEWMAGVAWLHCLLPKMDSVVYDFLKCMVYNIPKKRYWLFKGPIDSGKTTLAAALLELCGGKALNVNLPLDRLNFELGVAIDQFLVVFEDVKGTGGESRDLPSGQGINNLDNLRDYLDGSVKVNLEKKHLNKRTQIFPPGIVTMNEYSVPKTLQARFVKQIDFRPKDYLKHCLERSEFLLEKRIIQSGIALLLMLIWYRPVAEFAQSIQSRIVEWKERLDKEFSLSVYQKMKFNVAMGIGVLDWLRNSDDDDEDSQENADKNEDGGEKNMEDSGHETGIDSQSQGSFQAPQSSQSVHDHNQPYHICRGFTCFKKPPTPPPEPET

In the case of `Cc1nc2ccccn2c1-c1ccnn1S(=O)(=O)c1ccc(F)cc1`, the IC50 in [1] was > 80 µM (inactive). The EC50 in test [2] was > 195 µM (not active).

In the case of `CC(=O)Nc1ccc(NC(=O)CN(c2cccc([N+](=O)[O-])c2)S(C)(=O)=O)cc1`, the AC50 in the test with INS1 is 6.91 µM (active). Further, the EC50 was 3.09 µM (inconclusive) in the test on BJ [3]; 11.8 µM (active) in the test on BJ [4]; > 150 µM (inconclusive) in test [5]; > 150 µM (not active) in the test with BJ [6]; > 150 µM (inconclusive) in the test on BJ [7].

`CC(C)Cc1nc2oc3c(NCC4CCCO4)ncnc3c2c2c1CCC2` (stereo unspecified): the concentration for half-maximal inhibition (IC50) in [8] was 1.4 µM (active); in test [9] it was 4.96 µM (active).

Turning to `CC(C)CCNc1nnnc2c1sc1nc(N3CCOCC3)c3c(c12)CC(C)(C)SC3`, the EC50 in [10] is > 120 µM (not active); in [11], > 120 µM (not active); in test [12], 27.9 µM (active). Besides, the results for the half-maximal inhibitory concentration (IC50) in test [8] and in test [9] were 2.29 µM (active) and 12.5 µM (inactive), respectively.

As to `CC(C)Oc1ccc(Cc2cnc(N)nc2N)cc1`, the IC50 was 36.5 µM (inactive) in test [13] and 56.3 µM (inactive) at Exodeoxyribonuclease V.

Regarding `CC1(C)OC(=O)C(N=Nc2ccc(O)cc2)=C(O)O1`, the IC50 at Large T antigen was 6.72 µM (active); in [13], > 119 µM (inactive); on Exodeoxyribonuclease V it was > 119 µM (inactive); in test [14] it was 20.9 µM (active).

For the origin of these results see ChEMBL document CHEMBL1201862, “PubChem BioAssay data set” (2004).
